What all share (assay): relative viability (nuclei count vs DMSO), 5 days (fraction); higher = more cells survive
Compound in the experiment “Selisistat + Decitabine”: C1CC(C2=C(C1)C3=C(N2)C=CC(=C3)Cl)C(=O)N [Selisistat] + Nc1ncn([C@H]2C[C@H](O)[C@@H](CO)O2)c(=O)n1 [Decitabine] (partner 2 µM)
The method, boiled down: (§1)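 Lung cancer cell lines were pin-tool dosed in 1536-well plates on the day after seeding, with either a lone drug or a fixed anchor-drug dose plus five library-drug doses (not always all listed) in √10 steps. Nuclei were counted on 4× images after 5 days. Relative viability is the ratio of treated-well to vehicle-well nuclei counts, with each value a median of duplicate plates.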

Compound in the experiment “Serdemetan + Navitoclax”: c1ccc2c(CCNc3ccc(Nc4ccncc4)cc3)c[nH]c2c1 [Serdemetan] + CC1(C)CCC(c2ccc(Cl)cc2)=C(CN2CCN(c3ccc(C(=O)NS(=O)(=O)c4ccc(N[C@H](CCN5CCOCC5)CSc5ccccc5)c(S(=O)(=O)C(F)(F)F)c4)cc3)CC2)C1 [Navitoclax] (partner 0.5 µM)
The method, boiled down: as §1

Compound in the experiment “Selisistat + Foretinib”: C1CC(C2=C(C1)C3=C(N2)C=CC(=C3)Cl)C(=O)N [Selisistat] + COc1cc2c(Oc3ccc(NC(=O)C4(C(=O)Nc5ccc(F)cc5)CC4)cc3F)ccnc2cc1OCCCN1CCOCC1 [Foretinib] (partner 0.25 µM)
The method, boiled down: as §1

Compound in the experiment “Serdemetan + Decitabine”: c1ccc2c(CCNc3ccc(Nc4ccncc4)cc3)c[nH]c2c1 [Serdemetan] + Nc1ncn([C@H]2C[C@H](O)[C@@H](CO)O2)c(=O)n1 [Decitabine] (partner 2 µM)
The method, boiled down: as §1

Consider PC-14, for which the relative viability with Selisistat + Decitabine (first compound 0.4 µM) is 0.201; with Selisistat + Decitabine (first compound 1.265 µM), 0.217; with Selisistat + Decitabine (first compound 4 µM), 0.221; with Selisistat + Decitabine (first compound 12.65 µM), 0.237; with Selisistat + Decitabine (first compound 40 µM), 0.243; with Serdemetan + Navitoclax (first compound 0.04 µM), 0.977. Besides, the relative viability was 0.974 with Serdemetan + Navitoclax (first compound 0.1265 µM); 0.954 with Serdemetan + Navitoclax (first compound 0.4 µM); 0.923 with Serdemetan + Navitoclax (first compound 1.265 µM); 0.697 with Serdemetan + Navitoclax (first compound 4 µM); 0.946 with Selisistat + Foretinib (first compound 0.4 µM); 0.982 with Selisistat + Foretinib (first compound 1.265 µM). For the same cell line, the relative viability with Selisistat + Foretinib (first compound 4 µM) came out at 0.826; in the experiment with Selisistat + Foretinib (first compound 12.65 µM), 0.908; with Selisistat + Foretinib (first compound 40 µM), 0.946; with Serdemetan + Decitabine (first compound 0.04 µM), 0.186; with Serdemetan + Decitabine (first compound 0.1265 µM) it was 0.202; with Serdemetan + Decitabine (first compound 1.265 µM) it was 0.125. Also, the relative viability with Serdemetan + Decitabine (first compound 4 µM) was found to be 0.138.
For the cell line RERF-LC-KJ, the relative viability is 0.806 with Selisistat + Decitabine (first compound 0.4 µM); 0.601 with Selisistat + Decitabine (first compound 1.265 µM); 0.593 in the experiment with Selisistat + Decitabine (first compound 4 µM); 0.61 in the experiment with Selisistat + Decitabine (first compound 12.65 µM); 0.614 with Selisistat + Decitabine (first compound 40 µM); 1.15 in the experiment with Serdemetan + Navitoclax (first compound 0.04 µM). Besides, the relative viability turned out to be 0.842 in the experiment with Serdemetan + Navitoclax (first compound 0.1265 µM); 1.06 in the experiment with Serdemetan + Navitoclax (first compound 0.4 µM); 0.805 in the experiment with Serdemetan + Navitoclax (first compound 1.265 µM); 0.983 with Serdemetan + Navitoclax (first compound 4 µM); 0.902 with Selisistat + Foretinib (first compound 0.4 µM); 0.783 with Selisistat + Foretinib (first compound 1.265 µM). In addition, the relative viability in the experiment with Selisistat + Foretinib (first compound 4 µM) came out at 0.84; with Selisistat + Foretinib (first compound 12.65 µM), 0.829; in the experiment with Selisistat + Foretinib (first compound 40 µM) it was 0.803; in the experiment with Serdemetan + Decitabine (first compound 0.04 µM), 0.785; with Serdemetan + Decitabine (first compound 0.1265 µM), 0.636; in the experiment with Serdemetan + Decitabine (first compound 0.4 µM), 0.722. Further, the relative viability with Serdemetan + Decitabine (first compound 1.265 µM) was 0.489; with Serdemetan + Decitabine (first compound 4 µM), 0.605.
Take SK-LU-1: the relative viability with Selisistat + Decitabine (first compound 0.4 µM) stood at 0.716; with Selisistat + Decitabine (first compound 1.265 µM), 0.675; with Selisistat + Decitabine (first compound 4 µM) it was 0.676; with Selisistat + Decitabine (first compound 12.65 µM), 0.604; in the experiment with Selisistat + Decitabine (first compound 40 µM), 0.679; with Serdemetan + Navitoclax (first compound 0.04 µM) it was 0.809. In addition, the relative viability in the experiment with Serdemetan + Navitoclax (first compound 0.1265 µM) amounted to 0.971; with Serdemetan + Navitoclax (first compound 0.4 µM) it was 0.853; in the experiment with Serdemetan + Navitoclax (first compound 1.265 µM), 0.705; in the experiment with Serdemetan + Navitoclax (first compound 4 µM), 0.639; in the experiment with Selisistat + Foretinib (first compound 0.4 µM), 0.883; with Selisistat + Foretinib (first compound 1.265 µM), 0.811. Moreover, the relative viability in the experiment with Selisistat + Foretinib (first compound 4 µM) was 0.865; with Selisistat + Foretinib (first compound 12.65 µM), 0.813; in the experiment with Selisistat + Foretinib (first compound 40 µM), 0.825; in the experiment with Serdemetan + Decitabine (first compound 0.04 µM), 0.581; with Serdemetan + Decitabine (first compound 0.1265 µM) it was 0.58; with Serdemetan + Decitabine (first compound 0.4 µM), 0.691. Besides, the relative viability with Serdemetan + Decitabine (first compound 1.265 µM) was 0.393; in the experiment with Serdemetan + Decitabine (first compound 4 µM) it was 0.593.
Take SK-MES-1: the relative viability with Selisistat + Decitabine (first compound 0.4 µM) is 0.397; in the experiment with Selisistat + Decitabine (first compound 1.265 µM), 0.446; with Selisistat + Decitabine (first compound 4 µM), 0.312; with Selisistat + Decitabine (first compound 12.65 µM), 0.325; with Selisistat + Decitabine (first compound 40 µM), 0.331; with Serdemetan + Navitoclax (first compound 0.04 µM), 1.21. For the same cell line, the relative viability with Serdemetan + Navitoclax (first compound 0.1265 µM) came to 1.24; with Serdemetan + Navitoclax (first compound 0.4 µM) it was 1.25; in the experiment with Serdemetan + Navitoclax (first compound 1.265 µM), 0.917; with Serdemetan + Navitoclax (first compound 4 µM), 0.551; with Selisistat + Foretinib (first compound 0.4 µM), 0.908; with Selisistat + Foretinib (first compound 1.265 µM), 0.762. The relative viability in the experiment with Selisistat + Foretinib (first compound 4 µM) is 0.624; with Selisistat + Foretinib (first compound 12.65 µM), 0.879; in the experiment with Selisistat + Foretinib (first compound 40 µM) it was 0.883; with Serdemetan + Decitabine (first compound 0.04 µM), 0.327; with Serdemetan + Decitabine (first compound 0.1265 µM), 0.368; with Serdemetan + Decitabine (first compound 0.4 µM), 0.397. The relative viability is 0.33 in the experiment with Serdemetan + Decitabine (first compound 1.265 µM) and 0.281 with Serdemetan + Decitabine (first compound 4 µM).
SW 1573: the relative viability was 0.604 in the experiment with Selisistat + Decitabine (first compound 0.4 µM); 0.453 in the experiment with Selisistat + Decitabine (first compound 1.265 µM); 0.347 with Selisistat + Decitabine (first compound 4 µM); 0.502 with Selisistat + Decitabine (first compound 12.65 µM); 0.459 with Selisistat + Decitabine (first compound 40 µM); 0.898 in the experiment with Serdemetan + Navitoclax (first compound 0.04 µM). Besides, the relative viability in the experiment with Serdemetan + Navitoclax (first compound 0.1265 µM) is 0.876; in the experiment with Serdemetan + Navitoclax (first compound 0.4 µM), 1.02; with Serdemetan + Navitoclax (first compound 1.265 µM) it was 0.303; with Serdemetan + Navitoclax (first compound 4 µM) it was 0.105; in the experiment with Selisistat + Foretinib (first compound 0.4 µM), 0.954; with Selisistat + Foretinib (first compound 1.265 µM) it was 0.806. The relative viability with Selisistat + Foretinib (first compound 4 µM) came to 0.821; with Selisistat + Foretinib (first compound 12.65 µM), 0.931; with Selisistat + Foretinib (first compound 40 µM), 0.929; with Serdemetan + Decitabine (first compound 0.04 µM) it was 0.484; with Serdemetan + Decitabine (first compound 0.1265 µM), 0.522; with Serdemetan + Decitabine (first compound 0.4 µM) it was 0.427. The relative viability with Serdemetan + Decitabine (first compound 1.265 µM) is 0.249; with Serdemetan + Decitabine (first compound 4 µM) it was 0.219.
Regarding UMC-11, the relative viability was 0.604 with Selisistat + Decitabine (first compound 0.4 µM); 0.688 in the experiment with Selisistat + Decitabine (first compound 1.265 µM); 0.646 with Selisistat + Decitabine (first compound 4 µM); 0.676 in the experiment with Selisistat + Decitabine (first compound 12.65 µM); 0.637 with Selisistat + Decitabine (first compound 40 µM); 0.327 with Serdemetan + Navitoclax (first compound 0.04 µM). Besides, the relative viability with Serdemetan + Navitoclax (first compound 0.1265 µM) came out at 0.387; with Serdemetan + Navitoclax (first compound 0.4 µM), 0.314; with Serdemetan + Navitoclax (first compound 1.265 µM), 0.266; with Serdemetan + Navitoclax (first compound 4 µM) it was 0.313; with Selisistat + Foretinib (first compound 0.4 µM), 0.979; with Selisistat + Foretinib (first compound 1.265 µM) it was 0.988. Besides, the relative viability came out at 1.08 with Selisistat + Foretinib (first compound 4 µM); 0.982 with Selisistat + Foretinib (first compound 12.65 µM); 1.02 in the experiment with Selisistat + Foretinib (first compound 40 µM); 0.564 with Serdemetan + Decitabine (first compound 0.04 µM); 0.387 in the experiment with Serdemetan + Decitabine (first compound 0.1265 µM); 0.685 in the experiment with Serdemetan + Decitabine (first compound 0.4 µM). The relative viability is 0.649 with Serdemetan + Decitabine (first compound 1.265 µM) and 0.532 with Serdemetan + Decitabine (first compound 4 µM).

The values above are taken from the supplement of paper PMC10307832.
